The text below walks through data of article PMC5642477, “Phosphodiesterase 10A is overexpressed in lung tumor cells and inhibitors selectively suppress growth by blocking β-catenin and MAPK signaling” (Oncotarget, 2017).

The subject of one test is β-catenin in H1299 cells. Put plainly: Western blotting, β-catenin phosphorylation. Format: cell-based, human. Conditions: H1299, PQ10 2 µmol/L, 1 hour; KT5823 0.1 µmol/L, H89 1 µmol/L. On the procedure:
(§1) Whole cell extraction was performed according to a previously described method using cell lysing buffer (Cell Signaling) supplemented with 10 mmol/L NaF for protein phosphorylation studies. Cell lysates were separated by 4-12% gradient, 7% or 10% pre-casting PAGE (Novex/Invitrogen) followed by electrophoretic transfer to a nitrocellulose membrane. Western blotting procedures were performed using Chemiluminescence Reagent (Pierce) and visualized using Chemi Doc Imaging System (BioRad).

In test [1] the test system is cleaved PARP and caspase 3 in H1299 cells. Put plainly: Western blotting, cleaved PARP and caspase 3 (apoptosis). Particulars: H1299, 24 hours of treatment. Format: cell-based, human. On the procedure:
as §1
A general note: Immunoblotting shows a protein as a band on a membrane.

Test [2] concerns intracellular cGMP levels in H1299 cells. Put plainly: cGMP biosensor assay (luciferase). It is filed as cell-based, human. Conditions: H1299, CNP 100 nmol/L; sildenafil 1 µmol/L, IBMX 100 µmol/L. On the procedure: Stable cell lines with an expression of luciferase-based cGMP biosensor were established from H1299 NSCLC cells and HEK293 cells using a genetically encoded GAF-Luc construct (Promega), containing a cGMP-specific binding domain from human PDE5A GAF-A domain fused to modified firefly luciferase (35). Cells were pre-incubated at room temperature in CO2 independent media supplemented with 10% FBS and 5 mmol/L luciferin. For the measurement of intracellular cGMP levels, sodium nitroprusside (SNP) or C-type natriuretic peptide (CNP) in combination with PDE inhibitors were added to initiate the experiment and the increased luminescence values in live cells were detected constantly over a period time of 2 hours.

Another test has as its system A549 cells. In words: Growth assay (Cell Titer Glo). It is filed as cell-based. Particulars: Homo sapiens; A549, 72 hours, 5% serum; read-out: Growth inhibition IC50. On the procedure: (§2) Cells were plated in half area 96-well microtiter plates (Corning) at a density of 3, 000 cells per well. For drug treatment, cells were treated with compound or DMSO as vehicle (final concentration at 0.2%). For siRNA assays, cells were transfected with siRNAs under the same condition as described above. The effect of treatment on cell growth was measured using the Cell Titer Glo (CTG) assay (Promega) as specified by the measurement of viable cells based on ATP content after 72 hours standard culture. All growth assay involving NSCLCs and NHAECs were performed in the presence of 5% serum.
(§3) Drug effects on cell growth and IC50 values were determined as described previously. All experiments were repeated a minimum of three times to determine the reproducibility of the results. All error bars represent standard error of the mean (SEM). Statistical analysis was performed using Student’s t test or other as indicated. A P value of <0.05 was considered statistically significant.
On the technique in general: ATP-based viability assays read luminescence as a measure of living cells.

In a further test the test system is H460 cells. In words: Growth assay (Cell Titer Glo). Conditions: Homo sapiens, NCI-H460; H460, 72 hours, 5% serum; read-out: Growth inhibition IC50. Format: cell-based. On the procedure: as §2, §3
For another test, the system named is EKVX cells. In words: Growth assay (Cell Titer Glo). It is filed as cell-based. Particulars: Homo sapiens, 72 hours, read-out: Growth inhibition IC50. On the procedure: as §2, §3
A further test concerns H226 cells. Put plainly: Growth assay (Cell Titer Glo). Format: cell-based. Particulars: Homo sapiens, NCI-H226; H226, 72 hours; read-out: Growth inhibition IC50. On the procedure: as §2, §3
The next test has as its system H23 cells. In words: Growth assay (Cell Titer Glo). Format: cell-based. Conditions: Homo sapiens, NCI-H23; H23, 72 hours; read-out: Growth inhibition IC50. On the procedure: as §2, §3
The next test deals with H322M cells. In words: Growth assay (Cell Titer Glo). Format: cell-based. Particulars: Homo sapiens, NCI-H322M, 72 hours, read-out: Growth inhibition IC50. On the procedure:
as §2, §3

The next test relates to H522 cells. In words: Growth assay (Cell Titer Glo). Particulars: Homo sapiens, NCI-H522; H522, 72 hours; read-out: Growth inhibition IC50. It is filed as cell-based. On the procedure: as §2, §3
The next test has as its system HOP-92 cells. Put plainly: Growth assay (Cell Titer Glo). It is filed as cell-based. Particulars: Homo sapiens; HOP-92, 72 hours; read-out: Growth inhibition IC50. On the procedure: as §2, §3
Another test has as its system HOP62 cells. In words: Growth assay (Cell Titer Glo). Format: cell-based, human. Particulars: Homo sapiens, HOP-62; HOP62, 72 hours, 5% serum; read-out: Growth inhibition IC50. On the procedure:
as §2, §3

Another test deals with H1299 cells. In words: Growth assay (Cell Titer Glo). Format: cell-based, human. Conditions: not shown. On the procedure:
as §2, §3

For `O=S(=O)(NCCNC/C=C/c1ccc(Br)cc1)c1cccc2cnccc12` [H89], the “effect on PQ10-induced phosphorylation of β-catenin at pSer552” value with β-catenin in H1299 cells is “partial inhibition”. Moreover, the “effect on PQ10-induced activation of PARP and caspase 3” value in [1] is on record as “ineffective”.

On to `CC(C)Cn1c(=O)n(C)c(=O)c2[nH]cnc21` [IBMX], for which the “effect on luminescence values in biosensor assay” value in [2] was “increased luminescence levels”.

As to `COC(=O)[C@@]1(OC)C[C@H]2O[C@]1(C)n1c3ccccc3c3c4c(c5c6ccccc6n2c5c31)C(=O)N(C)C4` [KT5823], in the test on β-catenin in H1299 cells, the “effect on PQ10-induced phosphorylation of β-catenin at pSer552” value was “partial inhibition”. In test [1], the “effect on PQ10-induced activation of PARP and caspase 3” value is listed as “attenuated”.

Regarding `COc1ccc(Cc2nccc3cc(OC)c(OC)cc23)cc1OC` [Papaverine], the IC50 (in general, the concentration that gives 50% inhibition) in the test with A549 cells is 17.2 µM; with H460 cells, 16.3 µM.

In the case of `Cn1cc(-c2ccncc2)c(-c2ccc(OCc3ccc4ccccc4n3)cc2)n1` [Pf-2545920], the half-inhibitory concentration (IC50) came to 15.8 µM with A549 cells; 18.6 µM in the test on EKVX cells; 21.1 µM in the test with H226 cells; 18.1 µM in the test on H23 cells; 20 µM with H322M cells; 15.2 µM in the test on H460 cells. The figures for the IC50 in the test on H522 cells, in the test with HOP-92 cells and in the test with HOP62 cells were 25.8 µM, 21.4 µM and 22.9 µM, respectively.

With `CCCc1nn(C)c2c(=O)[nH]c(-c3cc(S(=O)(=O)N4CCN(C)CC4)ccc3OCC)nc12` [Sildenafil, sildenafil], the “effect on growth of H1299 cells” value with H1299 cells is “no effect”. The “effect on luminescence values in biosensor assay” value in test [2] is reported as “did not affect luminescence values”.
